Measured values: patent US20160312240A1, “MODIFIED PYR/PYL RECEPTORS ACTIVATED BY ORTHOGONAL LIGANDS” (The Regents of the University of California, priority 2010, published 2016)

Legend:
[1] = target: T1, 6×-His-PYR1(27-18) (S47P, K59R, Y120H) (Arabidopsis thaliana, UniProt O49686, K59R/S47P/Y120H); experiment: In vitro PP2C phosphatase activity assay (receptor activation = inhibition of PP2C); format: biochemical; settings: mutant 27-18; increasing concentrations; 10 mM Mn++ buffer; FIG. 1
T1 construct: 6x-His (N); made in house
Protocol: FIGS. 1A-1B. PYR1 mutant 27-18 confers responsiveness to fenhexamid but not ABA. Representative PYR1 mutant 27-18 (comprising S47P, K59R, and Y120H substitution mutations) was tested for responsiveness to abscisic acid (“ABA”) (FIG. 1A) and fenhexamid (FIG. 1B) at increasing concentrations as compared to a wild-type PYR1 control using an in vitro PP2C phosphatase activity assay.
To probe orthogonal receptor-ligand interactions further, recombinant protein was expressed for the fenhexamid-responsive mutant 27-18, which has three mutations in PYR1. 6×-His-PYR1(27-18) protein was expressed and purified alongside wild-type PYR1 protein. Both proteins were tested for their ability to inhibit PP2C activity in response to increasing concentrations of either ABA or fenhexamid using phosphatase activity assays, in which activation of the PYR/PYL receptor is monitored by inhibition of PP2C activity (FIG. 1).

PYL2 K64R,Y124H,M164I = target: T2, PYL2 K64R,Y124H,M164I (Arabidopsis thaliana, UniProt O80992, K64R/M164I/Y124H); experiment: Yeast two-hybrid assay, strain Y190 pAD-HAB1, X-gal staining; format: cell-based; settings: FIG. 3A
T2 construct: expressed in transfected cells; host or cells: Saccharomyces cerevisiae Y190 pAD-HAB1
Protocol: (§1) FIGS. 3A-3B. […] FIG. 3A. […] In addition, pocket residue mutations at V114I and/or V67I were introduced. The mutants (listed on left side of panel) were constructed in pBD-PYL2 and transformed into Y190 pAD-HAB1 yeast cells. The transformants were then grown on increasing concentrations of fenhexamid and scored for responsiveness using X-gal staining, performed as described in Park et al., 2009. […] FIG. 3B. In vitro characterization of PYL2 K64R, Y124H, M164I, V67I, V114I mutant. Recombinant wild-type and mutant PYL2 proteins were produced as described previously and used in PP2C assays, as described previously (Park et al., 2009), with the exception that a 2:1 ratio of receptor for phosphatase was used.
(§2) PYR1 is a member of the PYR/PYL receptor protein family, which in Arabidopsis contains 14 members. […] Given the conserved nature of these residues, we speculated that fenhexamid sensitivity could be engineered into other receptor family members by mutating homologous residues in other PYR/PYL receptors. To test this, we introduced the homologous mutations in PYL2 (K64R, corresponding to K59R in PYR1; Y124H, corresponding to Y120H in PYR1; and M164I, corresponding to M158I in PYR1), creating the mutant PYL2^K64R,Y124H,M164I. […]

[2] = target: T3, PYL2 K64R,Y124H,M164I,V67I,V114I (Arabidopsis thaliana, UniProt O80992, K64R/M164I/V114I/V67I/Y124H); experiment: as above; format: cell-based; settings: FIG. 3A
T3 construct: expressed in transfected cells; host or cells: Saccharomyces cerevisiae Y190 pAD-HAB1
Protocol: as §1, §2

[3] = target: T3, PYL2 K64R,Y124H,M164I,V67I,V114I; experiment: In vitro PP2C inhibition assay, 2:1 receptor to phosphatase; format: biochemical; settings: FIG. 3B
Protocol: as §1, §2

T3 sequence (Q9CAJ0 23-511): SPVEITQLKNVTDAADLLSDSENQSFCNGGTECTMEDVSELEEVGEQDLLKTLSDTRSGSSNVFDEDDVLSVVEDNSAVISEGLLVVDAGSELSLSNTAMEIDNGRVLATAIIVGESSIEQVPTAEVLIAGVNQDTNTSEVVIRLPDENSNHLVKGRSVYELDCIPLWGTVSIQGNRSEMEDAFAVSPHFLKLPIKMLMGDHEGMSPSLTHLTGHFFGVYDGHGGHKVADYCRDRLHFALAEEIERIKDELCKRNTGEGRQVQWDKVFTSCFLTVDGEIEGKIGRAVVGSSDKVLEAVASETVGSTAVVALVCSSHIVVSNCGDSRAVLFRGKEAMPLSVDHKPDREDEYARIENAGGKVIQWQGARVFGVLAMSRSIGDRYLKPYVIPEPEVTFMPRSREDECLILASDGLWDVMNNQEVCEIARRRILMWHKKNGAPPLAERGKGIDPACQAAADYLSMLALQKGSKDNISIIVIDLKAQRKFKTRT
T3 sequence (O80992 whole entry K64R/V67I/V114I/Y124H/M164I): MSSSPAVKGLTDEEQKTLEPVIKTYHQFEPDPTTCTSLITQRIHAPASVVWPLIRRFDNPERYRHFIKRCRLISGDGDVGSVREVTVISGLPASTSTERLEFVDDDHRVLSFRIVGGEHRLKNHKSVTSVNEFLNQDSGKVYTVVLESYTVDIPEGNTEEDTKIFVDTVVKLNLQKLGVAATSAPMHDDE
T2 sequence (O80992 whole entry K64R/Y124H/M164I): as the sequence (O80992 whole entry K64R/V67I/V114I/Y124H/M164I) above, with I67V, I114V counted along it
T1 sequence (O49686 whole entry S47P/K59R/Y120H): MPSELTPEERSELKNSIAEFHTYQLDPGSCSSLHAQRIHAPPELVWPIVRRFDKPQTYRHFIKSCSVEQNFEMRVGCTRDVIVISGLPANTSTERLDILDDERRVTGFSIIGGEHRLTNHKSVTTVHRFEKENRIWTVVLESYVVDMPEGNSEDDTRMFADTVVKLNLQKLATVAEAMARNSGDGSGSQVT
T1 sequence (Q9CAJ0 23-511, stated change not applied, further chain): as the sequence (Q9CAJ0 23-511) above

**Q.** Which results are given for `CC1(C(=O)Nc2ccc(O)c(Cl)c2Cl)CCCCC1` [fenhexamid]?
**A.** Receptor activation (inhibition of PP2C activity) [1]: activated; fenhexamid responsiveness (yeast two-hybrid) (PYL2 K64R,Y124H,M164I): does not show fenhexamid responsiveness; Response to fenhexamid in yeast assays [2]: respond; Response to fenhexamid in in vitro PP2C inhibition assays [3]: respond
